Data as given in patent US20260070917A1, “CYCLIN DEPENDENT KINASE DEGRADERS AND METHODS OF USE THEREOF” (Differentiated Therapeutics Inc, priority 2023, published 2026).
Like-named read-outs stand apart in the source and are kept apart here.

How the values were obtained:
Type in all cases: cell-based
CDK2 = molecular target: T1, CDK2 (Homo sapiens, UniProt P24941); assay: HiBit Assay Protocol for CDK2 (HIBIT protein quantification, degradation); conditions: HEK293-CDK2-Hibit cells, compound treatment for 6 hours; for DC50: ABS DC50
T1 construct: host or cells: HEK293-CDK2-Hibit
Outline: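 DC50 comes from a fitted curve of remaining CDK2-HiBiT luminescence, referenced to DMSO-treated cells and medium-only wells. HEK293-CDK2-HiBiT cells, plated the previous night, received compounds in a 10-point, 3-fold series for 6 h before lysis with LgBiT-containing Nano-Glo HiBiT reagent.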

CCNE1 = molecular target: T2, CCNE1 (Homo sapiens, UniProt P24864); assay: HiBit Assay Protocol for CCNE1 (HIBIT protein quantification, degradation); conditions: HEK293-CCNE1-Hibit cells, compound treatment for 6 hours
T2 construct: host or cells: HEK293-CCNE1-Hibit
Outline: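 Degradation readout: lytic Nano-Glo HiBiT luminescence after 6 h exposure of HEK293-CCNE1-HiBiT cells to 10-point, 3-fold serial dilutions. Signal was scaled between medium-only and DMSO-treated wells, and DC50 came from curve fits.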

CDK9 = molecular target: T3, CDK9 (Homo sapiens, UniProt P50750); assay: HiBit Assay Protocol for CDK9 (HIBIT protein quantification, degradation); conditions: HEK293-CDK9-Hibit cells, compound treatment for 6 hours; for Dmax: read-out: CDK9 HIBIT Protein Quantification Maximum; for DC50: ABS DC50
T3 construct: host or cells: HEK293-CDK9-Hibit
Description: HiBit Assay Protocol for CDK9
• 1. The culture medium for HEK293-CDK9-Hibit cell was prepared using DMEM with 10% FBS. • 2. Cells were cultivated in T-75 flasks in a cell culture incubator set at 37° C., 5% CO2, 95% relative humidity. Cells were allowed to reach 80-90% confluence before detaching and splitting. • 3. Cultivated cells were rinsed in T-75 flasks with 5 mL PBS. Aspirated off. Added 1.5 mL trypsin, and incubated the cells at 37° C. for approximately 5 minutes or until the cells detached and floated. • 4. Trypsin was inactivated by adding excess serum containing medium. • 5. Cells were harvested from flask into cell culture medium and then the cell number was counted. HEK293-CDK9-Hibit cells were seeded into 384-well plate (cell density: 1.6×10^5 cells/well/50 uL medium) in DMEM medium according to the plate map below and were incubated overnight at 37° C. and 5% CO2. • Note: Cell Cultured Medium: 90% DMEM+10% FBS+1% Penicillin-Streptomycin Liquid
• 1. Test compounds were dissolved at 3 mM DMSO stock solution. Transferred 45 uL of stock solution to a 384 pp-plate. Perform 3-fold, 10-point dilution via transferring 15 uL compound into 30 uL DMSO by using TECAN liquid handler. • 2. The plates were spinned at room temperature at 1,000 RPM for 1 minute. • 3. Transferred 50 nL of diluted compound from compound source plate into the cell plate by Echo. • 4. After compound treatment for 6 hours, removed the plate from incubators and equilibrated at room temperature for 15 minutes. Prepared the HiBit reagent consists of the following ratios: 10 mL of Nano-Glo®-HiBiT Lytic Buffer, 200 uL of Nano-Glo®-HiBiT Lytic Substrate and 100 uL of LgBiT Protein, mixed thoroughly. Added 20 uL of HiBit reagent into each well and spinned the plates at room temperature at 1,000 RPM for 1 minute to be detected. Plates were then shaken at 600 RPM at room temperature for 20 minutes, and read by EnVision. • 5. The inhibition activity was calculated following the formula below:
[formula] • Note: Where HC was obtained from cells treated with 0.1% DMSO only; LC was obtained from culture medium only. • 6. The ABS DC50 was calculated by fitting the Curve using Xlfit (v5.3.1.3), equation 201: […]

T3 sequence (P50750 whole entry): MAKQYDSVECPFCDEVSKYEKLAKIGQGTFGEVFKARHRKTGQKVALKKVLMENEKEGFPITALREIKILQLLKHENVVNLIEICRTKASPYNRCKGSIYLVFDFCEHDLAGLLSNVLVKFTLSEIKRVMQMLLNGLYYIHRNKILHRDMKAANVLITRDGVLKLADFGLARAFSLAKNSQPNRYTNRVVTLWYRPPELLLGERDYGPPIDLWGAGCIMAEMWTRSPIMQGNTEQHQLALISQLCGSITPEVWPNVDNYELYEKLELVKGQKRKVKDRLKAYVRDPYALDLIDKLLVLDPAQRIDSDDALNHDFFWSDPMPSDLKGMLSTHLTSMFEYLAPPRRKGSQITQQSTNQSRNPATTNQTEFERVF
T2 sequence (P24864 whole entry): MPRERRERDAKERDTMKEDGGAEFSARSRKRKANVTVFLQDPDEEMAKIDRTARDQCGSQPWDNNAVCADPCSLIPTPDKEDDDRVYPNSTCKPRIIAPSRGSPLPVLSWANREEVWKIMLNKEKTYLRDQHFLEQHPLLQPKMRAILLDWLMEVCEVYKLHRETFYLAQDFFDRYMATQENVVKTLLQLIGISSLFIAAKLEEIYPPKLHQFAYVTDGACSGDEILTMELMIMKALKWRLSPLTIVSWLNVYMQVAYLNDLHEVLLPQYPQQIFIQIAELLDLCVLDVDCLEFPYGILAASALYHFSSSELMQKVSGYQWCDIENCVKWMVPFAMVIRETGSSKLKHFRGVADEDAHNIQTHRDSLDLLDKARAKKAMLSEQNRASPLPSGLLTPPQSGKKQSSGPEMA

CDK2 HIBIT Protein Quantification Maximum (CDK2) [%]	DC50 (CDK2) [nM]	CCNE1 HIBIT Protein Quantification Maximum (CCNE1) [%]	Dmax (CDK9; 6 h) [%]	DC50 (CDK9) [nM]	SMILES	Dmax (CDK9) [%]
75	1.8	38	23		Cn1nc(N2CCC(=O)NC2=O)c2ccc(C3CCN(Cc4cccc(S(=O)(=O)N5CCC(Nc6ncc7c(n6)N([C@H]6CCC[C@]6(C)O)C(=O)C76CC6)CC5)c4)CC3)cc21 [Compound 178]	
65	16	37	34		CC1CCCC1N1C(=O)C2(CC2)c2cnc(NC3CCN(S(=O)(=O)N4CC(N(C)C(=O)CCCCCCCCCc5ccc6c(c5)n(C)c(=O)n6C5CCC(=O)NC5=O)C4)CC3)nc21 (centres unmarked) [Compound 86]	
54	41	28	28		CC1CCCC1N1C(=O)C2(CC2)c2cnc(NC3CCN(S(=O)(=O)N4CCC5(CCN(C(=O)CCc6cccc7c6n(C)c(=O)n7C6CCC(=O)NC6=O)C5)C4)CC3)nc21 (centres unmarked) [Compound 21]	
69	6	46	49		O=C1CCC(N2Cc3cc(N4CCC(N5CC(Oc6cccc(S(=O)(=O)c7ccc(Nc8ncc9c(n8)N([C@@H]8CCC[C@@H](O)C8)C(=O)C98CC8)cc7)c6)C5)CC4)ccc3C2=O)C(=O)N1 (some centres unmarked) [Compound 127]	
25		6	11		CC1CCCC1N1C(=O)C2(CC2)c2cnc(NC3CCN(S(=O)(=O)N4CCCC45CCN(C(=O)CCCCc4ccc6c(c4)n(C)c(=O)n6C4CCC(=O)NC4=O)C5)CC3)nc21 (centres unmarked) [Compound 104]	
63	16	39	51	2	CC1CCCC1N1C(=O)C2(CC2)c2cnc(NC3CCN(S(=O)(=O)N4CCC5(CCCN5C(=O)CCCCc5cccc6c5n(C)c(=O)n6C5CCC(=O)NC5=O)C4)CC3)nc21 (centres unmarked) [Compound 94]	
48		47	7		O=C1CCC(N2Cc3cc(CN4CC(Oc5cccc(S(=O)(=O)N6CCC(Nc7ncc8c(n7)N([C@@H]7CCC[C@@H](O)C7)C(=O)C87CC7)CC6)c5)C4)ccc3C2=O)C(=O)N1 (stereo partly drawn) [Compound 132, 3-[5-({3-[3-(4-{7′-[(1R,3R)-3-Hydroxycyclohexyl]-6′-oxospiro[cyclopropane-1,5′-pyrrolo[2,3-d]pyrimidin]-2′-ylamino}piperidin-1-ylsulfonyl)phenoxy]azetidin-1-yl}methyl)-1-oxo-3H-isoindol-2-yl]piperidine-2,6-dione]	
69	13.9	11	17		Cn1c(=O)n(C2CCC(=O)NC2=O)c2ccc(-c3ccc(Oc4cccc(S(=O)(=O)N5CCC(Nc6ncc7c(n6)N([C@@H]6CCC[C@@H](O)C6)C(=O)C76CC6)CC5)c4)cc3)cc21 (stereo partly drawn) [Compound 149, 3-(5-{4-[3-(4-{7′-[(1R,3R)-3-Hydroxycyclohexyl]-6′-oxospiro[cyclopropane-1,5′-pyrrolo[2,3-d]pyrimidin]-2′-ylamino}piperidin-1-ylsulfonyl)phenoxy]phenyl}-3-methyl-2-oxo-1,3-benzodiazol-1-yl)piperidine-2,6-dione]	
53		22	15		CC1CCCC1N1C(=O)C2(CC2)c2cnc(NC3CCN(S(=O)(=O)N4CC5(CCCN(C(=O)CCc6ccc7c(c6)n(C)c(=O)n7C6CCC(=O)NC6=O)C5)C4)CC3)nc21 (centres unmarked) [Compound 57]	
41		21	-1		CC1CCCC1N1C(=O)C2(CC2)c2cnc(NC3CCN(S(=O)(=O)N4CCCC45CCN(C(=O)CCCc4cccc6c4n(C)c(=O)n6C4CCC(=O)NC4=O)C5)CC3)nc21 (centres unmarked) [Compound 24]	
72	11	37	75	17.6	CC1CCCC1N1C(=O)C2(CC2)c2cnc(NC3CCN(S(=O)(=O)N4CC5(CCN(C(=O)CCCc6cccc7c6n(C)c(=O)n7C6CCC(=O)NC6=O)CC5)C4)CC3)nc21 (centres unmarked) [Compound 30]	
42		16	4		CC1CCCC1N1C(=O)C2(CC2)c2cnc(NC3CCN(S(=O)(=O)N4CC5(CN(C(=O)CCCCc6ccc7c(c6)n(C)c(=O)n7C6CCC(=O)NC6=O)C5)C4)CC3)nc21 (centres unmarked) [Compound 108]	
57	4	22	47		CC1CCCC1N1C(=O)C2(CC2)c2cnc(NC3CCN(S(=O)(=O)N4CC5(CCN(C(=O)CCCCc6ccc7c(c6)n(C)c(=O)n7C6CCC(=O)NC6=O)CC5)C4)CC3)nc21 (centres unmarked) [Compound 109]	
91	4.62	45	14		C[C@H](c1cccc(S(=O)(=O)N2CC[C@H](Nc3ncc4c(n3)N([C@@H]3CCC[C@@H](O)C3)C(=O)C43CC3)[C@H](F)C2)c1)N1CCN(c2ccc3c(N4CCC(=O)NC4=O)nn(C)c3c2)[C@H](C)C1 [Compound 208]	
41		19	15		CC1CCCC1N1C(=O)C2(CC2)c2cnc(NC3CCN(S(=O)(=O)N4CCC5(CCCN5C(=O)CCc5ccc6c(c5)n(C)c(=O)n6C5CCC(=O)NC5=O)C4)CC3)nc21 (centres unmarked) [Compound 56]	

SMILES	CDK2 HIBIT Protein Quantification Maximum (CDK2) [%]	DC50 (CDK2) [nM]	CCNE1 HIBIT Protein Quantification Maximum (CCNE1) [%]	Dmax (CDK9; 6 h) [%]	DC50 (CDK9) [nM]	Dmax (CDK9) [%]
O=C1CCC(N2Cc3cc(N4CCN(CC5CCN(c6cccc(S(=O)(=O)N7CCC(Nc8ncc9c(n8)N([C@@H]8CCC[C@@H](O)C8)C(=O)C98CC8)CC7)c6)CC5)CC4)ccc3C2=O)C(=O)N1 (stereo partly drawn) [Compound 122, 3-{5-[4-({1-[3-(4-{7′-[(1R,3R)-3-hydroxycyclohexyl]-6′-oxospiro[cyclopropane-1,5′-pyrrolo [2,3-d]pyrimidin]-2′-ylamino}piperidin-1-ylsulfonyl)phenyl]piperidin-4-yl}methyl)piperazin-1-yl]-1-oxo-3H-isoindol-2-yl}piperidine-2,6-dione]	79	7	25			22
Cn1nc(N2CCC(=O)NC2=O)c2ccc(C3CCN(Cc4cc(F)cc(S(=O)(=O)N5CCC(Nc6ncc7c(n6)N([C@@H]6CCC[C@@H](O)C6)C(=O)C76CC6)CC5)c4)CC3)cc21 [Compound 170, 1-[6-(1-{[3-Fluoro-5-(4-{7′-[(1R,3R)-3-hydroxycyclohexyl]-6′-oxospiro[cyclopropane-1,5′-pyrrolo[2,3-d]pyrimidin]-2′-ylamino}piperidin-1-ylsulfonyl)phenyl]methyl}piperidin-4-yl)-1-methylindazol-3-yl]-1,3-diazinane-2,4-dione]	75	3.63	46			5
O=C1CCC(N2Cc3cc(N4CCC(CN5CCN(c6cccc(S(=O)(=O)N7CCC(Nc8ncc9c(n8)N([C@@H]8CCC[C@@H](O)C8)C(=O)C98CC8)CC7)c6)CC5)CC4)ccc3C2=O)C(=O)N1 (stereo partly drawn) [Compound 119, 3-{5-[4-({4-[3-(4-{7′-[(1R,3R)-3-hydroxycyclohexyl]-6′-oxospiro[cyclopropane-1,5′-pyrrolo [2,3-d]pyrimidin]-2′-ylamino}piperidin-1-ylsulfonyl)phenyl]piperazin-1-yl}methyl)piperidin-1-yl]-1-oxo-3H-isoindol-2-yl}piperidine-2,6-dione]	70	3	22			25
